Several values for one entry are separate records, joined by “and”; a condition that tells them apart may be missing. Equal entries are not always repeated.
What was measured:
S15V-hP2X3R = biological target: T1, S15V-hP2X3R (Homo sapiens, UniProt P56373, S15V); assay: TEVC of ATP-induced currents, S15V-hP2X3R expressed in X. laevis oocytes (peak current protocol); assay type: cell-based; conditions: for IC50 / inhibition at 1000 µM: 1 µM ATP; for IC50: 30-s preincubation of antagonist, X. laevis oocytes, −60 mV, geometric mean; for inhibition at 1000 µM: 1 mM antagonist, mean ± SEM, read-out: Max. inhibition at 1 mM; for reversibility of the inhibitory effect by washout: subsequent control current after washout
T1 construct: expressed in transfected cells; host or cells: Xenopus laevis oocytes (cRNA injection)
T1 sequence (P56373 1-397 S15V): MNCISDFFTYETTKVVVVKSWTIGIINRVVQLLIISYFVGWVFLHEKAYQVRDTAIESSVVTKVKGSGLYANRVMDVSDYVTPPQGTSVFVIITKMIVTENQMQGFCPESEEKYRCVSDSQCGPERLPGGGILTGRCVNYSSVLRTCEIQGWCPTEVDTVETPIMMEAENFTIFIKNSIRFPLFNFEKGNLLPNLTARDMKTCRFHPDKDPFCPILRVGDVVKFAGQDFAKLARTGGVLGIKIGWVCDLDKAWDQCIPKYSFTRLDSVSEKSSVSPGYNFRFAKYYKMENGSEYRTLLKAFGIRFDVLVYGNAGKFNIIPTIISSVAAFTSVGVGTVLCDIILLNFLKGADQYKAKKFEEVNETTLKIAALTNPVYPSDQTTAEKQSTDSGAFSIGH
Text: Oocyte expression plasmids encoding the wild-type (wt) and N-terminally His-tagged (His-) fusion constructs of the hP2X2R, hP2X3R, hP2X4R, and hP2X7R, and the mutant His-^20RMVL^23KVIV^23S^26N-hP2X1R, S^15V-rP2X3R, and His-S^15V-hP2X3R were the same as used in previous research ([Hausmann et al., 2006]; [Wolf et al., 2011]; [Hausmann et al., 2014]; [Obrecht et al., 2019]). In most cases, the N-terminal His-tagged variants of P2XRs were used here and in the previous studies to allow biochemical analyses on affinity-purified proteins using the same constructs. Although this was not required for the present study, it allows for better comparability with our previous studies. Capped cRNAs of different P2XRs were already available in the research group or were synthesized as previously described ([Schmalzing et al., 1991]; [Stolz et al., 2015]). cRNA was injected into collagenase-defolliculated X. laevis oocytes in aliquots of 41 nl or 23 nl (see Supplementary Table S1 for the amount of cRNA used for expression of the indicated P2XR) using a Nanoliter 2000 injector (World Precision Instruments, Sarasota, United States of America) as described previously ([Hausmann et al., 2014]; [Stolz et al., 2015]; [Obrecht et al., 2019]). To express the heteromeric hP2X2/3 receptor, cRNAs encoding His-hP2X2R and wt-hP2X3R were coinjected at a ratio (w/w) of 1:6. Oocytes were stored at 19°C in an oocyte ringer solution (ORi^+) containing 90 mM NaCl, 1 mM KCl, 1 mM CaCl2, 1 mM MgCl2, and 10 mM HEPES (Carl Roth, Karlsruhe, Germany) adjusted to pH 7.4 with NaOH and supplemented with 50 μg/ml gentamicin (AppliChem, Darmstadt, Germany). The procedures followed for the maintenance of and the surgical treatment for X. laevis adults were approved by the governmental animal care and use committee of the State Agency for Nature, Environment, and Consumer Protection (LANUV, Recklinghausen, Germany; reference no. 81-02.04.2019. A355), in compliance with Directive 2010/63/EU of the European Parliament and of the Council on the protection of animals used for scientific purpose.
Ion currents mediated by P2X receptors were evoked by the indicated concentration of ATP or α,β-meATP and were recorded 1 or 2 days after cRNA injection at ambient temperature at a holding potential of −60 mV by two-electrode voltage clamp (TEVC) as previously described ([Hausmann et al., 2006]). Calcium-free ORi^− solution (90 mM NaCl, 1 mM KCl, 2 mM MgCl2, 10 mM HEPES, pH 7.4) was used to avoid bias due to calcium-activated chloride channels (CaCC) endogenously expressed in X. laevis oocytes ([Miledi, 1982]; [Methfessel et al., 1986]). For recordings of wt-hP2X7R, the composition of the ORi^− solution was modified according to protocols described previously and contained 100 mM NaCl, 2.5 mM KCl, 1 mM MgCl2, 5 mM HEPES, pH 7.4 ([Klapperstück et al., 2000]). The oocytes were continuously superfused with ORi^− by gravity flow (5–10 ml/min). The agonists ATP or α,β-meATP and the investigated NSAIDs were diluted in ORi^− on the day of the recording. […] A peak current protocol (Supplementary Figure S1) was used to analyze fast- and intermediate desensitizing P2XR subtypes (P2X1R, P2X3R, and S^15V-P2X3R), and a steady-state protocol (Supplementary Figure S2) was used for slowly or partially desensitizing P2X subtypes (P2X2R, P2X2/3R, and P2X4R). For recordings of P2X7R, a modified steady-state protocol was used ([Hausmann et al., 2006]). The application of different bath solutions was controlled by computer-operated magnetic valves controlled by the CellWorks E 5.5.1 software (npi electronic, Tamm, Germany).
Antagonist concentration–response data and IC50 values were calculated by normalizing ATP-induced responses to the control responses (recorded in the presence and absence of the antagonist, respectively). […]

[1] = cited from earlier work

| Compound | IC50 (S15V-hP2X3R) | inhibition at 1000 µM (S15V-hP2X3R) | reduction of current amplitude in the presence of 3–10 µM diclofenac (S15V-hP2X3R; 3–10 µM diclofenac) | inhibition at 3 µM (S15V-hP2X3R; read-out: % inhibition of 10 µM ATP-induced currents by 3 µM diclofenac, 3 µM diclofenac, 10 µM ATP, ± SEM) | inhibition at 30 µM (S15V-hP2X3R; read-out: % inhibition of 10 µM ATP-induced currents by 30 µM diclofenac, 30 µM diclofenac, 10 µM ATP, ± SEM) | reversibility of the inhibitory effect by washout (S15V-hP2X3R) | plasma levels, intramuscular injection ([1]; injected intramuscularly, ref Drago et al., 2017) | maximum plasma levels, oral ([1]; oral application of 50–75 mg diclofenac, ref Kurowski et al., 1994, Kienzler et al., 2010) | plasma levels, transdermal application ([1]; transdermal application, ref Efe et al., 2014) | plasma levels, transdermal, repetitive application ([1]; applied transdermally, even with repetitive application, ref Drago et al., 2017) |
| --- | --- | --- | --- | --- | --- | --- | --- | --- | --- | --- |
| O=C(O)Cc1ccccc1Nc1c(Cl)cccc1Cl [Diclofenac, diclofenac] | 138 µM | ~80% | 20%–30% | -1.6% | 24% | not reversible | approximately 1.8 μg/ml and ~6 μM | 2.3–2.6 μg/ml and 7–8 μM | low nanomolar |  |
| O=C(O)c1ccccc1Nc1cccc(C(F)(F)F)c1 [Flufenamic acid, flufenamic acid] | 221 µM and 222 µM | 69.8% |  |  |  | not reversible |  |  |  | ≤ 180 nM |

Reference: publication PMC10060569 (Frontiers in Pharmacology, 2023)
